Several values for one entry are separate records, joined by “and”; a condition that tells them apart may be missing. Identical values can stand only once.
Key:
Caco-2 cells = experiment: MTT assay, survival rate of Caco-2 cells; type: cell-based, human; settings: 4 h
Excerpt: The human colon adenocarcinoma cell line Caco-2 (No. 3111C0001CCC000100, passage 32) was obtained from the Cell Resource Center, Peking Union Medical College (the headquarters of National Infrastructure of Cell Line Resource, NSTI) on May 3rd, 2013. The cell line was checked free of mycoplasma contamination by PCR and culture, its species origin was confirmed with PCR, and its identity was authenticated with STR profiling (FBI, CODIS). All results of the above tests can be viewed on the website (http://cellresource.cn). The cells were cultured in 25 cm^2 flasks in DMEM medium supplemented with 10% (v/v) FBS, 1% (v/v) NEAA, and 1% (v/v) penicillin-streptomycin, in an atmosphere of 5% CO2 at 37°C and constant moisture. The culture medium was replaced every 2 to 3 days, and the cells were split 1:2 or 1:3 as 80% confluence was obtained.
Caco-2 cells at logarithmic growth phase were seeded into 96-well plates and incubated at 37°C in an atmosphere of 5% CO2 and constant moisture in the incubator. After the cells reached confluence, they were cultured in quadruplicate with 100 μL of HBSS solution (negative control) and compound-containing HBSS solution (seven flavonoids or paclitaxel (positive control) at the concentrations of 25, 50, and 100 μmol/L, respectively) for 4 h. Then, HBSS solution was replaced by 100 μL of MTT solution (0.5 mg/mL), and the supernatant was discarded after 4 h of incubation at 37°C. The cells were shaken with 150 μL of DMSO for 10 min, and the absorbance was read on the microplate reader at 570 nm. The survival rate %=A¯/A0¯×100 , wherein A¯ was the average absorbance value of treatment or positive control group, and A0¯ was the average absorbance value of negative control group.

influenza virus A = tested on: influenza virus A; parameters: method as in PMID 17193271; settings: cited from earlier work
Caco-2 cell monolayer = experiment: Transport experiment across Caco-2 cell monolayer (Papp); type: in vitro ADME, human; settings: for Absorption mechanism: from P ratio, time course and concentration course; for P ratio Papp AP→BL/Papp BL→AP: 90 min
Protocol: (§1) For cells differentiation to form a confluent monolayer, Caco-2 cells were seeded into the inserts of the 12-well Transwell plates at the density of 1.0×10^5 cells/cm^2. The culture medium was replaced on every other day in the first week, and then at daily intervals for the apical (AP) side and 2 days intervals for the basal (BL) side until the transport experiment was performed 21 days after seeding. The AP and BL sides contained 0.5 and 1.5 mL of culture medium, respectively. […] The cell inserts were considered as qualified only if the resistance reached above 600 Ω cm^2.
(§2) On day 21, the transport experiment was initiated by removal of the culture medium from AP and BL sides. The Caco-2 monolayers were rinsed twice with pre-warmed Hanks balanced salt solution (HBSS) and were incubated with the same solution at 37°C for 30 min. The seven individual test compounds and an equimolar mixture of them were pre-dissolved in DMSO, and then diluted to 25, 50, and 100 μmol/L with an appropriate volume of HBSS to allow the final concentration of DMSO to be less than 1%. The test compounds were added to the AP (0.5 mL) or BL side (1.5 mL), while the receiving chamber contained the corresponding volume of HBSS. Incubation was performed at 37°C for 180 min, with shaking at 50 rpm. At 30, 60, 90, 120, 150, and 180 min, each 0.2 mL of the solution from BL or AP side was collected, and replaced with an equal volume of HBSS. The samples were frozen immediately and stored below-20°C before analysis.
(§3) The apparent permeability coefficients (Papp) were determined in this study by HPLC quantification of the compounds in the receiver chamber after transport across the Caco-2 monolayer. The calculation was carried out in accordance with the formula Papp = (dQ/dt)×(1/A)×(1/C0), wherein dQ/dt was the rate of appearance of the test compound in the receiver compartment (μmol/s); C0 was the initial concentration of test compound in the donor compartment (μmol/mL); and A was the surface area of the Caco-2 monolayer (cm^2). The percentage transported (%) was calculated using the formula % transported = QB/(CS×VD)×100, wherein QB was the quantity of compound in the receiver compartment (μmol); CS was the concentration of test compound in the donor compartment (μmol/mL); VD was the liquid volume of the donor compartment (mL). The transport rate (μmol/h/cm^2) was calculated using the formula transport rate = QB/(t×A), wherein QB was the quantity of compound in the receiver compartment (μmol); t was the incubation time (h); A was the surface area of the Caco-2 monolayer (cm^2).

[1] = as above; type: in vitro ADME, human; settings: human, 50 μmol/L, 90 min
Protocol: as §1, §2, §3

murine ear edema model = settings: cited from earlier work
[2] = Stability of sample solutions at room temperature by HPLC; type: physicochemical; settings: sample solution at room temperature, HPLC at 0, 1, 2, 4, 6, 12 and 24 h
Protocol: The intra-day precision was determined by investigating the analytes in sextuplicates during a single day, and the inter-day precision was determined by conducting the intra-day experiment on two consecutive days. […] Each one sample solution of the seven flavonoids was kept at room temperature, and then their stabilities were determined by injecting them into apparatus at 0, 1, 2, 4, 6, 12, and 24 h.

P-glycoprotein (P-gp) = biological target: T1, P-glycoprotein (P-gp) (Homo sapiens, UniProt P08183); experiment: Transporter inhibition experiment with verapamil hydrochloride (P-gp) in Caco-2 monolayer; type: in vitro ADME; settings: 50 μmol/L compound, 100 μmol/L verapamil hydrochloride, AP to BL
T1 construct: endogenous in cells; host or cells: Caco-2 cells
Protocol: (§4) On day 21, transport study was initiated by carefully removing the culture medium from both AP and BL sides. The Caco-2 monolayers were rinsed twice with pre-warmed HBSS and were incubated with the same solution at 37°C for 30 min. […] The final concentration of DMSO in these solutions was less than 1%. […] Incubation was performed at 37°C for 180 min, with shaking at 50 rpm. […] The samples were frozen immediately and stored below-20°C before analysis.

[3] = biological target: T2, multidrug resistance protein 2 (MRP2) (Homo sapiens, UniProt Q92887); experiment: Transporter inhibition experiment with probenecid (MRP2) in Caco-2 monolayer; type: in vitro ADME; settings: 50 μmol/L compound, 600 μmol/L probenecid, AP to BL
T2 construct: endogenous in cells; host or cells: Caco-2 cells
Protocol: as §4

[4] = in the equimolar mixture of the seven flavonoids, 50 μmol/L
[5] = Caco-2, in the equimolar mixture of the seven flavonoids

T2 sequence (Q92887 whole entry): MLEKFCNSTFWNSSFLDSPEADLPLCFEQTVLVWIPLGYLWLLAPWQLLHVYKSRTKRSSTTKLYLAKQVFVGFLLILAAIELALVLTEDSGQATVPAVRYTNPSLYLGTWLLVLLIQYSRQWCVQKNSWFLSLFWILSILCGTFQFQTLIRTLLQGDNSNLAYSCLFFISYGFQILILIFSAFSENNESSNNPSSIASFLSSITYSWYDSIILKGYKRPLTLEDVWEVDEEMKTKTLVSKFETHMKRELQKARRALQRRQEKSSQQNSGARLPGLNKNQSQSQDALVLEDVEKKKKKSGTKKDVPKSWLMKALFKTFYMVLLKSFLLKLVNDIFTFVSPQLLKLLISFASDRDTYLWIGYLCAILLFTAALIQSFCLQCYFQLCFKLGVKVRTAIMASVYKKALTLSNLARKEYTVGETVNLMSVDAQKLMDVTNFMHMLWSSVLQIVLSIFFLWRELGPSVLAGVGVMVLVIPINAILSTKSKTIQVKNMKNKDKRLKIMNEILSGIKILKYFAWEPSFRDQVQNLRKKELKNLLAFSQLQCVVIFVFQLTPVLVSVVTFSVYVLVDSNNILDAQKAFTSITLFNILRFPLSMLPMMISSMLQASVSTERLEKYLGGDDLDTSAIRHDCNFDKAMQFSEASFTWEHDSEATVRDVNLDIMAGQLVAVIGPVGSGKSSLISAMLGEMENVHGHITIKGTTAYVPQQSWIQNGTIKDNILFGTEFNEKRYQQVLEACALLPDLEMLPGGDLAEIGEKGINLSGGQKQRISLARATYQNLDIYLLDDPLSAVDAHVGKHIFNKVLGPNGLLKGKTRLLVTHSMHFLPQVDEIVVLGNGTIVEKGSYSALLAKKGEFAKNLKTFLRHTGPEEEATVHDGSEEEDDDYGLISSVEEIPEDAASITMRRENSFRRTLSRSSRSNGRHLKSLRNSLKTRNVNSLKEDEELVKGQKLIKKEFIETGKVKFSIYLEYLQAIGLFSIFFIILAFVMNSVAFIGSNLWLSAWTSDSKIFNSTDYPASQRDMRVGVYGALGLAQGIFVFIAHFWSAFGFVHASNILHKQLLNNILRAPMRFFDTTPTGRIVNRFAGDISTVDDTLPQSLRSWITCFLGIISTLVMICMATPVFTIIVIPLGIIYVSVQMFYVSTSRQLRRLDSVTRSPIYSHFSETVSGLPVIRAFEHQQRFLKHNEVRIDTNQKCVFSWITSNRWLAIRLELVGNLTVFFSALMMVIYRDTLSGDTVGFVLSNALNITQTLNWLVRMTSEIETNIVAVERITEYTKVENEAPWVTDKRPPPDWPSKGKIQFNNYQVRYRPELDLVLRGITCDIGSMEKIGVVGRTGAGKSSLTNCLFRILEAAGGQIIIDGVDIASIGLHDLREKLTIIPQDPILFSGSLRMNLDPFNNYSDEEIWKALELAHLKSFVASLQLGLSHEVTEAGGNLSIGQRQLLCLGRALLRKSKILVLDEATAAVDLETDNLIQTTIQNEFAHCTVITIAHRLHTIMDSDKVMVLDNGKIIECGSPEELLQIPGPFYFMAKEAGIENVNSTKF
T1 sequence (P08183 whole entry): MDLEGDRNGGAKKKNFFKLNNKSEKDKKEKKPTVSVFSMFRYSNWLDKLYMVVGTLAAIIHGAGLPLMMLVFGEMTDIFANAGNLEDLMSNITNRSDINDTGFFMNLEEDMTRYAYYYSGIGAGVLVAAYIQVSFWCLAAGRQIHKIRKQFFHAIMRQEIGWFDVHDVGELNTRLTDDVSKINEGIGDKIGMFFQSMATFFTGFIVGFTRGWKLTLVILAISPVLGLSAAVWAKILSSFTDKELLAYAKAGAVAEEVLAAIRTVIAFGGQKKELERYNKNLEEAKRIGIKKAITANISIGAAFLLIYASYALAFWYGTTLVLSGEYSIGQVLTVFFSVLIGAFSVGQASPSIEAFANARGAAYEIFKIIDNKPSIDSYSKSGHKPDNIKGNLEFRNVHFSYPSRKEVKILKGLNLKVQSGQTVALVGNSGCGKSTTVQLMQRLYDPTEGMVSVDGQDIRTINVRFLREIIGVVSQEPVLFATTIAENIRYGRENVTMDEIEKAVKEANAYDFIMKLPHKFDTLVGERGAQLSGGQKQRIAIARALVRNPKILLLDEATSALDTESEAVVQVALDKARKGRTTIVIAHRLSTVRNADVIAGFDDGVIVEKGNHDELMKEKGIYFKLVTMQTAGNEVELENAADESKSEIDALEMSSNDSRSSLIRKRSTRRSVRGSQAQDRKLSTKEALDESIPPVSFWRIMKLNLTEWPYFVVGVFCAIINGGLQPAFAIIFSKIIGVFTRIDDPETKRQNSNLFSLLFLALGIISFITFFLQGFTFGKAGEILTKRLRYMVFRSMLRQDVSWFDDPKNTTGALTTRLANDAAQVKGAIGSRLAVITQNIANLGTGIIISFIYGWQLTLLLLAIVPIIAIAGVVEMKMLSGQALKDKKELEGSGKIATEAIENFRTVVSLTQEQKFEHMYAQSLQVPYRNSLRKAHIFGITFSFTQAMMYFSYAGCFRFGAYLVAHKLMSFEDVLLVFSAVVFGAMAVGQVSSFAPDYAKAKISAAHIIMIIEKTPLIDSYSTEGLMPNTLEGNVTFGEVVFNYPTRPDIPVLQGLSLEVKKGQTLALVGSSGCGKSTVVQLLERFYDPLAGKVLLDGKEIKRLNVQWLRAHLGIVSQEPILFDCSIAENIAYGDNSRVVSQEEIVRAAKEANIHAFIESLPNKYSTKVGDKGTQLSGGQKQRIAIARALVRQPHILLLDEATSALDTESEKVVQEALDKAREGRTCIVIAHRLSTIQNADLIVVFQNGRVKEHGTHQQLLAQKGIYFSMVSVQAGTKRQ

| SMILES | Survival rates (%) (Caco-2 cells; 25 μmol/L) | Survival rates (%) (Caco-2 cells; 50 μmol/L) | Survival rates (%) (Caco-2 cells; 100 μmol/L) | Effect against influenza virus A (influenza virus A) | Transport percentage BL to AP in the equimolar mixture compared with individual state (Caco-2 cell monolayer; 50 μmol/L) | Absorbability assessment based on bidirectional Papp values (Caco-2 cell monolayer; compared with atenolol and propranolol) | Absorption mechanism (Caco-2 cell monolayer) | P ratio Papp AP→BL/Papp BL→AP (Caco-2 cell monolayer; [4]) | P ratio Papp AP→BL/Papp BL→AP (Caco-2 cell monolayer; individual compound, 50 μmol/L) | Papp A→B at 90 min, 50 μmol/L [1, 5] [×10⁻⁶ cm/s] | Papp B→A at 90 min, 50 μmol/L [1, 5] [×10⁻⁶ cm/s] | Papp A→B at 90 min, 50 μmol/L ([1]; Caco-2, individual compound) [×10⁻⁶ cm/s] | Papp B→A at 90 min, 50 μmol/L ([1]; Caco-2, individual compound) [×10⁻⁶ cm/s] | Inhibitory rate on murine ear edema model (murine ear edema model) [%] | RSD% values for 24-hour stability [2] [%] | Substrate of P-gp (P-glycoprotein (P-gp)) | Effect of verapamil hydrochloride on the transport (P-glycoprotein (P-gp); 180 min) | Substrate of MRP2 [3] | Effect of probenecid on the transport ([3]; 180 min) |
| --- | --- | --- | --- | --- | --- | --- | --- | --- | --- | --- | --- | --- | --- | --- | --- | --- | --- | --- | --- |
| CCC(C)C(=O)O[C@@H]1[C@@H](O)[C@H](O)[C@@H](CO)O[C@H]1c1c(OC)cc(O)c2c(=O)cc(-c3ccc(O)cc3)oc12 (stereo partly drawn) [2”-O-(2”‘-methylbutanoyl)isoswertisin, (2S,3R,4S,5S,6R)-4,5-dihydroxy-2-(5-hydroxy-2-(4-hydroxyphenyl)-7-methoxy-4-oxo-4H-chromen-8-yl)-6-(hydroxymethyl)tetrahydro-2H-pyran-3-yl 2-methylbutanoate] | 108.8±10.3 | 127.6±4.9 | 128.9±12.5 | had an effect | increased almost twice | moderate absorbable compound | passive diffusion without participation of transporter | 0.25 | ~1 and 0.94 | 3.49 ± 0.47 | 13.7 ± 1.14 | 4.5 ± 0.03 | 4.8 ± 0.53 | 35.5 | 3.89 |  |  |  |  |
| O=c1cc(-c2ccc(O)c(O)c2)oc2c([C@@H]3O[C@H](CO)[C@@H](O)[C@H](O)[C@H]3O[C@@H]3O[C@H](CO)[C@H](O)[C@H](O)[C@H]3O)c(O)cc(O)c12 [2”-O-β-L-galactopyranosylorientin, 8-((2S,3R,4S,5S,6R)-4,5-dihydroxy-6-(hydroxymethyl)-3-(((2S,3R,4S,5R,6R)-3,4,5-trihydroxy-6-(hydroxymethyl)tetrahydro-2H-pyran-2-yl)oxy)tetrahydro-2H-pyran-2-yl)-2-(3,4-dihydroxyphenyl)-5,7-dihydroxy-4H-chromen-4-one] | 111.0±9.1 | 104.7±2.7 | 102.7±7.7 |  |  |  | transporter mediated efflux in addition to passive diffusion | 1.90 | 0.40 | 1.31 ± 0.38 | 0.69 ± 0.26 | 1.84 ± 0.01 | 4.58 ± 0.18 |  | 2.86 | nonsubstrates of P-gp | had no effect | substrate of MRP2 | significantly promoted |
